Data set [1] in a line: Haemolytic activity in human RBC measured after 30 mins by spectrophotometric analysis. Format: toxicity, cell-based, Erythrocyte. Particulars: red blood cells (RBC), read-out: Activity.
Data set [2] concerns K562. In words: Photodynamic antitumor activity against human K562 cells assessed as mortality rate preincubated for 24 hrs followed by irradiation by UV-VIS spectrophotometer. The data set is classed as functional.

The source of these data is ChEMBL document CHEMBL5233225, “Para-sulfonatocalix[n]arene-based biomaterials: Recent progress in pharmaceutical and biological applications” (Eur J Med Chem, 2020).

Turning to `O=S(=O)(O)c1cc2c(O)c(c1)Cc1cc(S(=O)(=O)O)cc(c1O)Cc1cc(S(=O)(=O)O)cc(c1O)Cc1cc(S(=O)(=O)O)cc(c1O)Cc1cc(S(=O)(=O)O)cc(c1O)Cc1cc(S(=O)(=O)O)cc(c1O)Cc1cc(S(=O)(=O)O)cc(c1O)Cc1cc(S(=O)(=O)O)cc(c1O)C2`, in data set [1], the hemolysis at 0.5 h worked out at 29%. The Activity in data set [2] is reported as 30%.
On to `O=S(=O)(O)c1cc2c(O)c(c1)Cc1cc(S(=O)(=O)O)cc(c1O)Cc1cc(S(=O)(=O)O)cc(c1O)Cc1cc(S(=O)(=O)O)cc(c1O)Cc1cc(S(=O)(=O)O)cc(c1O)Cc1cc(S(=O)(=O)O)cc(c1O)C2`, for which the hemolysis at 0.5 h in data set [1] is 12%. For the same molecule, in data set [2], the Activity is recorded as 60%.
